Test results as given in patent publication US20020137929A1, “1 - (3-heterocyclylphenyl) isothiourea, -isourea, -guanidine and -amidine herbicidal agents” (Intellectual Property Department, BASF Aktiengesellschaft, priority 1998, published 2002).

Legend:
[1] = tested on: GLXMA (Soybean); assay: Postemergence herbicidal evaluation; format: in vivo, Glycine max
Method: In the tests, seedling plants are grown in jiffy flats for about two weeks. The test compounds are dispersed in 50/50 acetone/water mixtures containing 0.5% TWEEN®20, a polyoxyethylene sorbitan monolaurate surfactant of Atlas Chemical Industries, in sufficient quantities to provide the equivalent of about 0.0156 kg to 0.500 kg per hectare of active compound when applied to the plants through a spray nozzle operating at 40 psi for a predetermined time. After spraying, the plants are placed on greenhouse benches and are cared for in accordance with conventional greenhouse procedures. From four to five weeks after treatment, the seedling plants are examined and rated according to the rating system set forth below. Where more than one test is involved for a given compound, the data are averaged.
Plant species employed in these evaluations are reported by header abbreviation, common name and scientific name.
(§1) Results of herbicide evaluation are expressed on a rating scale (0-9). The scale is based upon a visual observation of plant stand, vigor, malformation, size, chlorosis and overall plant appearance as compared with a control.

[2] = tested on: ORYSAT (Rice, Tebonnet); assay: Rice tolerance to post-transplant applications, flooded paddy conditions (Table IV); format: in vivo, Oryza sativa, (L.) Tebonnet; settings: in vivo
Method in brief: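 Herbicidal effect is judged by eye on a 0–9 scale versus control, 3–4 weeks after dosing. Dosing is into flood water kept 1.5–3 cm over the soil, at about 0.0313–0.500 kg/ha in aqueous/acetone 50/50 v/v, on 3–5 cm weeds and 1.5–2.5-leaf rice seedlings.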

[3] = tested on: MOOVA (Monochoria); assay: Postemergence weed control under flooded paddy conditions; format: in vivo, Monochoria vaginalis; settings: postemergence weeds, 3-4 weeks after treatment
Method in brief: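 Flood-water application, about 0.0313–0.500 kg/ha a.i. in aqueous/acetone 50/50 v/v; water depth 1.5–3 cm throughout. Weeds 3–5 cm, rice 1.5–2.5 leaf. Greenhouse; 0–9 visual rating vs control at 3–4 wk.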

[4] = tested on: GLXMA (Soybean); assay: Preemergence herbicidal evaluation; format: in vivo, Glycine max; settings: rated 4-5 weeks after treatment
Source text: as §1
(§2) The preemergence herbicidal activity of the test compounds of the present invention is exemplified by the following tests in which the seeds of a variety of monocotyledonous and dicotyledonous plants are separately mixed with potting soil and planted on top of approximately one inch of soil in separate pint cups. After planting, the cups are sprayed with the selected aqueous acetone solution containing test compound in sufficient quantity to provide the equivalent of about 0.0156 to 0.500 kg per hectare of test compound per cup. The treated cups are then placed on greenhouse benches, watered and cared for in accordance with conventional greenhouse procedures. From four to five weeks after treatment, the tests are terminated and each cup is examined and rated according to the rating system provided in Example 37.
(§3) The compounds evaluated are reported by compound number given in Example 37.

[5] = tested on: IPOSS (Morningglory Spp.); assay: Preemergence herbicidal evaluation; format: in vivo, Ipomoea Spp.; settings: rated 4-5 weeks after treatment
Source text: as §1, §2, §3

[6] = tested on: ECHCG (Barnyardgrass); assay: Preemergence herbicidal evaluation; format: in vivo, Echinochloa crus-galli; settings: rated 4-5 weeks after treatment
Method in brief: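 Herbicidal effect scored visually, 0-9, at 4 to 5 weeks against a control; compound applied preemergence by aqueous acetone spray to seeded soil at about 0.0156 to 0.500 kg/ha.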

[7] = tested on: ORYSAT (Rice, Tebonnet); assay: Rice tolerance to post-transplant applications, flooded paddy conditions (Table III); format: in vivo, Oryza sativa, (L.) Tebonnet; settings: in vivo
Method in brief: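 Injury scored 0-9 by eye against untreated control, judging stand, vigor, malformation, size and chlorosis, three to four weeks after treatment. Compound in 50/50 aqueous/acetone, about 0.0313 to 0.500 kg/ha, was applied to paddy water (1.5 to 3 cm depth) three days after transplanting paired ten-day-old Tebonnet rice seedlings.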

[8] = tested on: CHEAL (Lambsquarters, Common); assay: Postemergence herbicidal evaluation; format: in vivo, Chenopodium album; settings: postemergence
Method in brief: (§4)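 ~2-wk seedlings; postemergence spray, 40 psi; vehicle 1:1 acetone:water + 0.5% Tween 20; rate ≈0.0156–0.500 kg/ha; greenhouse hold; scored 4–5 wk after treatment, 0–9 scale vs control; repeat tests averaged.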

[9] = tested on: IPOSS (Morningglory Spp.); assay: Postemergence herbicidal evaluation; format: in vivo, Ipomoea Spp.
Method in brief: as §4

CCC1SC(=Nc2cc(N3C(=O)C4=C(CCCC4)C3=O)c(F)cc2Cl)N(C)C1=O (stereo not drawn) [Compound 6, N-{4-chloro-5-[(5-ethyl-3-methyl-4-oxo-2-thiazolidinylidene)amino]-2-fluorophenyl}-1-cyclohexene-1,2-dicarboximide] was tested, and the GLXMA herbicidal rating ([1]; rate 0.0157 kg/ha) was 3.0, the GLXMA herbicidal rating ([1]; rate 0.0313 kg/ha) was 3.0 and the GLXMA herbicidal rating ([1]; rate 0.0625 kg/ha) was 3.0. The GLXMA herbicidal rating ([1]; rate 0.1250 kg/ha) was 3.5, the GLXMA herbicidal rating ([1]; rate 0.2500 kg/ha) was 4.0 and the GLXMA herbicidal rating ([1]; rate 0.5000 kg/ha) was 4.0. For the same compound, the “Herbicidal rating ORYSAT (rice tolerance)” value [2] was 0.0, the “Herbicidal rating MOOVA” value ([3]; rate 0.0313 kg/ha) was 1.0 and the “Herbicidal rating MOOVA” value ([3]; rate 0.0625 kg/ha) was 4.0. The “Herbicidal rating MOOVA” value ([3]; rate 0.1250 kg/ha) was 4.0, the “Herbicidal rating MOOVA” value ([3]; rate 0.2500 kg/ha) was 4.5 and the “Herbicidal rating MOOVA” value ([3]; rate 0.5000 kg/ha) was 4.5. The “GLXMA preemergence herbicidal rating” value ([4]; rate 0.1250 kg/ha) was 0.0, the “GLXMA preemergence herbicidal rating” value ([4]; rate 0.2500 kg/ha) was 0.0 and the “GLXMA preemergence herbicidal rating” value ([4]; rate 0.5000 kg/ha) was 0.0. For the same compound, the “IPOSS preemergence herbicidal rating” value ([5]; rate 0.1250 kg/ha) was 0.0, the “IPOSS preemergence herbicidal rating” value ([5]; rate 0.2500 kg/ha) was 0.0 and the “IPOSS preemergence herbicidal rating” value ([5]; rate 0.5000 kg/ha) was 0.0. For the same compound, the “ECHCG preemergence herbicidal rating” value ([6]; rate 0.1250 kg/ha) was 0.0, the “ECHCG preemergence herbicidal rating” value ([6]; rate 0.2500 kg/ha) was 0.0 and the “ECHCG preemergence herbicidal rating” value ([6]; rate 0.5000 kg/ha) was 2.0. The “Herbicidal rating ORYSAT (rice tolerance)” value [7] was 0.0, the CHEAL herbicidal rating ([8]; rate 0.0157 kg/ha) was 0.0 and the CHEAL herbicidal rating ([8]; rate 0.0313 kg/ha) was 0.0. The CHEAL herbicidal rating ([8]; rate 0.0625 kg/ha) was 2.0, the CHEAL herbicidal rating ([8]; rate 0.2500 kg/ha) was 6.0 and the CHEAL herbicidal rating ([8]; rate 0.5000 kg/ha) was 9.0. The IPOSS herbicidal rating ([9]; rate 0.0157 kg/ha) was 0.0, the IPOSS herbicidal rating ([9]; rate 0.0313 kg/ha) was 0.0 and the IPOSS herbicidal rating ([9]; rate 0.0625 kg/ha) was 0.0. It also gave an IPOSS herbicidal rating ([9]; rate 0.1250 kg/ha) of 2.0, an IPOSS herbicidal rating ([9]; rate 0.2500 kg/ha) of 4.0 and an IPOSS herbicidal rating ([9]; rate 0.5000 kg/ha) of 9.0.
